Source: patent US9573956B2, “Compounds as dual inhibitors of phosphodiesterases and histone deacetylases” (FUNDACIÓN PARA LA INVESTIGACIÓN MÉDICA APLICADA, priority 2013, dated 2017)

Tests used:
Format in all cases: biochemical
PDE5A = molecular target: T1, PDE5A (Homo sapiens, UniProt O76074); assay: PDE enzyme activity assay (HTRF cGMP), PDE5A; settings: recombinant enzyme; read-out: PDE5A1 inhibition (IC50)
T1 construct: they are full-length with N-terminal GST tag; GST (N); purchased BPS Biosciences 60050; host or cells: baculovirus infected Sf9 cells

HDAC6 = molecular target: T2, HDAC6 (Homo sapiens, UniProt Q9UBN7); assay: HDAC enzyme activity assay (fluorogenic substrate), HDAC6; settings: recombinant enzyme; read-out: HDAC6 inhibition (IC50)
T2 construct: BC069243; Cat. #50006) is full-length with N-terminal GST tag; GST (N); purchased BPS Biosciences 50006; host or cells: baculovirus infected Sf9 cells
T2 sequence (Q9UBN7 1-1215): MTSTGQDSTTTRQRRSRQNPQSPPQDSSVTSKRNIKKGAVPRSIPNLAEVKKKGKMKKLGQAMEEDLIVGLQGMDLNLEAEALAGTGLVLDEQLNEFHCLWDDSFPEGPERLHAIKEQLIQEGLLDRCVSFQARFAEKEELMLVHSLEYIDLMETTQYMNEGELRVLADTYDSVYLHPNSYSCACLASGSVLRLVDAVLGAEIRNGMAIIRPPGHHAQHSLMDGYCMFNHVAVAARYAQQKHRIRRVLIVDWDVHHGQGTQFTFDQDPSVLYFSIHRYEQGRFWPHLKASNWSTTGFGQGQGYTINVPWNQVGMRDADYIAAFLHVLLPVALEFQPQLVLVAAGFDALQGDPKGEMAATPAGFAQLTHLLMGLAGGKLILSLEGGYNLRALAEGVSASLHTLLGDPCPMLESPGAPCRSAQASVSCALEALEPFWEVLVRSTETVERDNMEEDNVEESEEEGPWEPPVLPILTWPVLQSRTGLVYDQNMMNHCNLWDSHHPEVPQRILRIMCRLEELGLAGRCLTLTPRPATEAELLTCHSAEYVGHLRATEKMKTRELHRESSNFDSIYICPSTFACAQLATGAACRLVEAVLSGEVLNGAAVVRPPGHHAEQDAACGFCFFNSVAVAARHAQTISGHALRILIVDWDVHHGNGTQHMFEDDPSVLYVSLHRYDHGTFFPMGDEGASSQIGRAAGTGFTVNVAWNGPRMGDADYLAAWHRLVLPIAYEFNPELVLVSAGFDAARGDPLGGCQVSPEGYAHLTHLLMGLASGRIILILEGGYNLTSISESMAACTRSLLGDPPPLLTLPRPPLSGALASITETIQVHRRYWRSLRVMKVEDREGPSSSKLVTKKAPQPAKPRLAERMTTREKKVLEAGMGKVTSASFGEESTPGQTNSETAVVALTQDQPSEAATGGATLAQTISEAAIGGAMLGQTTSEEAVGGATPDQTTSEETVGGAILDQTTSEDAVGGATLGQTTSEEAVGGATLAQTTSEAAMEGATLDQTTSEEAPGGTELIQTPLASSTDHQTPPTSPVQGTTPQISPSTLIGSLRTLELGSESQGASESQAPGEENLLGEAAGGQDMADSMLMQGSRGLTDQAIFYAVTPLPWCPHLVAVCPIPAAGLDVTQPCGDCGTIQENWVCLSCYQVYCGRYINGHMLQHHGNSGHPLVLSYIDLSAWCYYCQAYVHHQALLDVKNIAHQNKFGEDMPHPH

HDAC1 = HDAC1 (Homo sapiens, UniProt Q13547); assay: HDAC enzyme activity assay (fluorogenic substrate), HDAC1; settings: recombinant enzyme; read-out: HDAC1 inhibition (IC50)
Chain of HDAC1 (Q13547 whole entry): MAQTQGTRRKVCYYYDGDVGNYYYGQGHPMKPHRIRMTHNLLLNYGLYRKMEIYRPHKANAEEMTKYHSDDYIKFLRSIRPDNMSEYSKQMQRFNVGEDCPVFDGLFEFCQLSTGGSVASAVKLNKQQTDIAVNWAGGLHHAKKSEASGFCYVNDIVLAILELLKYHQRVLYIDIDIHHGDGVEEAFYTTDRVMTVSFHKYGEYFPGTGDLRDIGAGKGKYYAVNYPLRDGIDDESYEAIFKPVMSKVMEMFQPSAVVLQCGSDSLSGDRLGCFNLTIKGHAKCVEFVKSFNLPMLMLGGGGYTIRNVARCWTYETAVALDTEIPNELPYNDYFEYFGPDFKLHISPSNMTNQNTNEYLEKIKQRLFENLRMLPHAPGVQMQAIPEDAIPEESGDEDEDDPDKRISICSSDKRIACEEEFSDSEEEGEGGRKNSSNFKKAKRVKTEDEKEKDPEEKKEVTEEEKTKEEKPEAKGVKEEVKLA

Row | Compound | IC50 (PDE5A) | IC50 (HDAC6) | IC50 (HDAC1)
1 | CCCc1nn(C)c2c(=O)[nH]c(-c3cc(C4CCC(C(=O)NO)CC4)ccc3OCC)nc12 (racemic) [Example 1-75, 4-[4-ethoxy-3-(1-methyl-7-oxo-3-propyl-6H-pyrazolo[4,3-d]pyrimidin-5-yl)phenyl]cyclohexanecarbohydroxamic acid] | 10 to 1000 nM | 1000 to 10000 nM | –
2 | CCCc1nn(C)c2c(=O)[nH]c(-c3cc(CC4CCC(C(=O)NO)CC4)ccc3OCC)nc12 (racemic) [Example 1-76, 4-[[4-ethoxy-3-(1-methyl-7-oxo-3-propyl-6H-pyrazolo[4,3-d]pyrimidin-5-yl)phenyl]methyl]cyclohexanecarbohydroxamic acid] | 10 to 1000 nM | 10 to 1000 nM | –
3 | CCCc1nn(C)c2c(=O)[nH]c(-c3cc(CC4CCC(C(=O)NO)C4)ccc3OCC)nc12 (racemic) [Example 1-80, 3-[[4-ethoxy-3-(1-methyl-7-oxo-3-propyl-6H-pyrazolo[4,3-d]pyrimidin-5-yl)phenyl]methyl]cyclopentanecarbohydroxamic acid] | 10 to 1000 nM | 10 to 1000 nM | –
4 | CCCc1nn(C)c2c(=O)[nH]c(-c3cc(C4CC(C(=O)NO)C4)ccc3OCC)nc12 (racemic) [Example 1-82, 3-[4-ethoxy-3-(1-methyl-7-oxo-3-propyl-6H-pyrazolo[4,3-d]pyrimidin-5-yl)phenyl]cyclobutanecarbohydroxamic acid] | 10 to 1000 nM | 10 to 1000 nM | –
5 | CCCc1nn(C)c2c(=O)[nH]c(-c3cc(OCC4CCN(c5ncc(C(=O)NO)cn5)CC4)ccc3OCC)nc12 [Example 1-11, N-Hydroxy-2-(4-[3-(6,7-dihydro-1-methyl-7-oxo-3-propyl-1H-pyrazolo[4,3-d]pyrimidin-5-yl)-4-ethoxyphenoxymethyl]-piperidin-1-yl)pyrimidine-5-carboxamide] | 1000 to 10000 nM | – | 10 to 1000 nM
6 | CCCc1nn(C)c2c(=O)[nH]c(-c3cccc(OC4CCN(c5ncc(C(=O)NO)cn5)CC4)c3)nc12 [Example 1-14] | 1000 to 10000 nM | 10 to 1000 nM | 10 to 1000 nM
7 | CCCc1nn(C)c2c(=O)[nH]c(-c3cc(NC4CCN(c5ccc(C(=O)NO)cc5)CC4)ccc3OCC)nc12 [Example 1-47] | 10 to 1000 nM | 1000 to 10000 nM | 1000 to 10000 nM
8 | CCCc1nn(C)c2c(=O)[nH]c(-c3cc(-c4ccc(C(=O)NO)s4)ccc3OCC)nc12 [Example 1-71] | < 10 nM | 10 to 1000 nM | –
9 | CCCc1nn(C)c2c(=O)[nH]c(-c3cc(-c4ccc(C(=O)NO)cn4)ccc3OCC)nc12 [Example 1-72] | < 10 nM | 10 to 1000 nM | –
10 | CCCc1nn(C)c2c(=O)[nH]c(-c3cc(-c4ccc(C(=O)NO)nc4)ccc3OCC)nc12 [Example 1-73] | < 10 nM | 10 to 1000 nM | –
11 | CCCc1nn(C)c2c(=O)[nH]c(-c3cc(-c4ccc(C(=O)NO)o4)ccc3OCC)nc12 [Example 1-74] | < 10 nM | 1000 to 10000 nM | –
12 | CCCc1nn(C)c2c(=O)[nH]c(-c3cc(C(OC)c4ccc(C(=O)NO)cc4)ccc3OCC)nc12 (stereo not drawn) [Example 1-77, 4-[[4-ethoxy-3-(1-methyl-7-oxo-3-propyl-6H-pyrazolo[4,3-d]pyrimidin-5-yl)phenyl]-methoxy-methyl]benzenecarbohydroxamic acid] | 10 to 1000 nM | 10 to 1000 nM | –
13 | CCCc1nn(C)c2c(=O)[nH]c(-c3cc(C(O)c4ccc(C(=O)NO)cc4)ccc3OCC)nc12 (stereo not drawn) [Example 1-78, 4-[[4-ethoxy-3-(1-methyl-7-oxo-3-propyl-6H-pyrazolo[4,3-d]pyrimidin-5-yl)phenyl]-hydroxy-methyl]benzenecarbohydroxamic acid] | < 10 nM | 10 to 1000 nM | –
14 | CCCc1nn(C)c2c(=O)[nH]c(-c3cc(C(=O)c4ccc(C(=O)NO)s4)ccc3OCC)nc12 [Example 1-79, 5-[4-ethoxy-3-(1-methyl-7-oxo-3-propyl-6H-pyrazolo[4,3-d]pyrimidin-5-yl)benzoyl]thiophene-2-carbohydroxamic acid] | < 10 nM | 10 to 1000 nM | –
15 | CCCc1nn(C)c2c(=O)[nH]c(-c3cc(CC4CCC(C(=O)NO)C4)ccc3OCC)nc12 (stereo not drawn) [Example 1-83, 3-[[4-ethoxy-3-(1-methyl-7-oxo-3-propyl-6H-pyrazolo[4,3-d]pyrimidin-5-yl)phenyl]methyl]cyclopentanecarbohydroxamic acid] | 10 to 1000 nM | 10 to 1000 nM | –
16 | CCCc1nn(C)c2c(=O)[nH]c(-c3cc(S(=O)(=O)N4CCN(C)CC4)ccc3OCC)nc12 [Sildenafil, reference compound] | – | – | > 10000 nM

Now from value to compound:

Row | IC50 (PDE5A) | IC50 (HDAC6) | IC50 (HDAC1) | Compound
17 | < 10 nM | 1000 to 10000 nM | – | CCCc1nc(C)c2c(=O)[nH]c(-c3cc(C4CCC(C(=O)NO)CC4)ccc3OCC)nn12 (racemic) [Example 2-12, 4-[4-ethoxy-3-(5-methyl-4-oxo-7-propyl-3H-imidazo[5,1-f][1,2,4]triazin-2-yl)phenyl]cyclohexanecarbohydroxamic acid]
18 | 10 to 1000 nM | – | 10 to 1000 nM | O=C(NO)c1cnc(N2CCC(N3CC(=O)N4C(Cc5c([nH]c6ccccc56)C4c4ccc5c(c4)OCO5)C3=O)CC2)nc1 (racemic) [Example 4-03, N-Hydroxy-2-(4-[6-(1,3-benzodioxol-5-yl)-2,3,6,7,12,12a-hexahydropyrazino[1′,2′:1,6]pyrido[3,4-b]indole-1,4-dion-2-yl]piperidin-1-yl)pyrimidine-5-carboxamide]
19 | < 10 nM | – | 1000 to 10000 nM | CCCc1nc(C)c2c(=O)[nH]c(-c3cc(S(=O)(=O)N4CCN(Cc5ccc(/C=C/C(=O)NO)cc5)CC4)ccc3OCC)nn12 [Example 2-01, (E)-3-[4-[[4-[4-Ethoxy-3-(5-methyl-4-oxo-7-propyl-3H-imidazo[5,1-f][1,2,4]triazin-2-yl)phenyl]sulfonylpiperazin-1-yl]methyl]phenyl]prop-2-enehydroxamic acid]
20 | < 10 nM | 10 to 1000 nM | – | CCCc1nc(C)c2c(=O)[nH]c(-c3cc(Cc4ccc(C(=O)NO)s4)ccc3OCC)nn12 [Example 2-10]
21 | < 10 nM | 10 to 1000 nM | – | CCCc1nc(C)c2c(=O)[nH]c(-c3cc(-c4ccc(C(=O)NO)cc4)ccc3OCC)nn12 [Example 2-11]
22 | < 10 nM | 10 to 1000 nM | – | CCCc1nc(C)c2c(=O)[nH]c(-c3cc(C4CCC(C(=O)NO)CC4)ccc3OCC)nn12 (stereo not drawn) [Example 2-13, 4-[4-ethoxy-3-(5-methyl-4-oxo-7-propyl-3H-imidazo[5,1-f][1,2,4]triazin-2-yl)phenyl]cyclohexanecarbohydroxamic acid]
23 | 10 to 1000 nM | – | > 10000 nM | O=C(/C=C/c1ccc(N2CC(=O)N3[C@H](c4ccc5c(c4)OCO5)c4[nH]c5ccccc5c4C[C@@H]3C2=O)cc1)NO [Example 4-01, (E)-N-Hydroxy-4-[6-(1,3-benzodioxol-5-yl)-2,3,6,7,12,12a-hexahydropyrazino[1′,2′:1,6]pyrido[3,4-b]indole-1,4-dion-2-yl]phenylprop-2-enamide]
24 | 10 to 1000 nM | – | > 10000 nM | O=C(CCCN1CCC(N2CC(=O)N3[C@H](c4ccc5c(c4)OCO5)c4[nH]c5ccccc5c4C[C@@H]3C2=O)CC1)NO [Example 4-02]
25 | 10 to 1000 nM | – | 10 to 1000 nM | O=C(/C=C/c1ccc(CN2CCC(N3CC(=O)N4[C@H](c5ccc6c(c5)OCO6)c5[nH]c6ccccc6c5C[C@@H]4C3=O)CC2)cc1)NO [Example 4-04]
